# In publication PMC7615677 (Science translational medicine, 2023):
# Tests used:
# L. major = assay: Leishmania intramacrophage in vitro assay; format: cell-based
# Protocol: (§1) A drug incubation period of 96 h was applied, and cells were stained with Giemsa for microscopic evaluation of cellular amastigote burdens. Percentage reduction compared to the burden in the infected non-treated control wells was used as a measure for drug activity.
# L. panamensis = assay: Leishmania intramacrophage in vitro assay; format: cell-based; settings: L. panamensis MHOM/PA/71/LS94
# Protocol: as §1
# L. tropica = assay: Leishmania intramacrophage in vitro assay; format: cell-based; settings: L. tropica MHOM/AF/2015/HTD7
# Protocol: as §1
# L. guyanensis = assay: Leishmania intramacrophage in vitro assay; format: cell-based; settings: L. guyanensis MHOM/PE/02/PER 054/0
# Protocol: as §1
# L. infantum = assay: Leishmania intramacrophage in vitro assay; format: cell-based
# Protocol: as §1
# [1] = test system: T. brucei brucei (bloodstream form); assay: In vitro activity against other kinetoplastid parasites; format: cell-based; settings: Trypanosoma brucei, one range given for T. brucei brucei and T. b. rhodesiense
# [2] = molecular target: T1, alpha1A Human Adrenoceptor GPCR (Homo sapiens, UniProt P35348); assay: α1A antagonism IC50 determination; format: cell-based
# T1 construct: Eurofins (contract assay)
# T1 sequence (P35348 whole entry): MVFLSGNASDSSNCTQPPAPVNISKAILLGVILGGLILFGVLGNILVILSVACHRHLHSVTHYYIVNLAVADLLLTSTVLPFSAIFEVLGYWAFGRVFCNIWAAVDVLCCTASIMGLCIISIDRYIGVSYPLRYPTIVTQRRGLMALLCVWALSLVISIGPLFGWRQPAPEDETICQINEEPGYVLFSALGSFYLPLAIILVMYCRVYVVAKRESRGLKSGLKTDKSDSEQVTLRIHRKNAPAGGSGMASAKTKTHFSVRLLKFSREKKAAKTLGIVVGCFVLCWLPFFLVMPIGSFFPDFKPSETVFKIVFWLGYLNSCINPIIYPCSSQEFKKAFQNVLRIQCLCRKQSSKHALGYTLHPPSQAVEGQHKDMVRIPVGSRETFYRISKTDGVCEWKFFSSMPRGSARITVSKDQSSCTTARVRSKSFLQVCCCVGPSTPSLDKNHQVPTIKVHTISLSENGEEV
# Description: Listed values represent the percent change relative to the DMSO control activity. When an IC50 had to be determined, eight different concentrations were included. All values are the mean of assay readout duplicates.
# L. donovani = assay: Leishmania intramacrophage in vitro assay; format: cell-based
# Protocol: as §1
# Alternatively, differentiated macrophage host cells derived from THP-1 (human leukemia monocytes) were infected at a multiplicity of infection of 1:2.5 (ratio of host cells to parasites) with L. donovani MHOM/IN/80/DD8 culture-maintained promastigotes. L. donovani MHOM/IN/80/DD8 (ATCC 50212) promastigote parasites and THP-1 (ATCC TIB202) cells were maintained as previously described ([20]). A drug incubation period of 96 h was applied, plates fixed with 4% paraformaldehyde and stained with SYBR® green and CellMask Deep Red™ (ThermoFisher Scientific). Images were acquired on an Opera high-content imaging system (PerkinElmer). Healthy host (THP-1) cells and intracellular amastigotes were identified using CellMask Deep Red cytoplasmic and SYBR green nuclear area and intensities, with intracellular parasites identified based on spot detection algorithms (size and intensity measurements used to define parasite nucleus) to determine the number of parasites present within THP-1 host cells. An infected cell was defined as a host cell containing >3 parasites within the cytoplasm boundary. Compound activity was determined based on the number of infected cells normalized to the positive (10μM DNDI-1044) and negative (0.4% DMSO) controls. Non-linear sigmoidal dose-response curves with no constraints were plotted, and IC50 was calculated. The IC50s were calculated from two independent experiments.
# hERG = hERG (Homo sapiens, UniProt Q12809); assay: hERG channel test (Qpatch / Qube); format: cell-based; design: host or cells: Chinese hamster ovary cells; settings: Qpatch hERG
# hERG, sequence (Q12809 whole entry): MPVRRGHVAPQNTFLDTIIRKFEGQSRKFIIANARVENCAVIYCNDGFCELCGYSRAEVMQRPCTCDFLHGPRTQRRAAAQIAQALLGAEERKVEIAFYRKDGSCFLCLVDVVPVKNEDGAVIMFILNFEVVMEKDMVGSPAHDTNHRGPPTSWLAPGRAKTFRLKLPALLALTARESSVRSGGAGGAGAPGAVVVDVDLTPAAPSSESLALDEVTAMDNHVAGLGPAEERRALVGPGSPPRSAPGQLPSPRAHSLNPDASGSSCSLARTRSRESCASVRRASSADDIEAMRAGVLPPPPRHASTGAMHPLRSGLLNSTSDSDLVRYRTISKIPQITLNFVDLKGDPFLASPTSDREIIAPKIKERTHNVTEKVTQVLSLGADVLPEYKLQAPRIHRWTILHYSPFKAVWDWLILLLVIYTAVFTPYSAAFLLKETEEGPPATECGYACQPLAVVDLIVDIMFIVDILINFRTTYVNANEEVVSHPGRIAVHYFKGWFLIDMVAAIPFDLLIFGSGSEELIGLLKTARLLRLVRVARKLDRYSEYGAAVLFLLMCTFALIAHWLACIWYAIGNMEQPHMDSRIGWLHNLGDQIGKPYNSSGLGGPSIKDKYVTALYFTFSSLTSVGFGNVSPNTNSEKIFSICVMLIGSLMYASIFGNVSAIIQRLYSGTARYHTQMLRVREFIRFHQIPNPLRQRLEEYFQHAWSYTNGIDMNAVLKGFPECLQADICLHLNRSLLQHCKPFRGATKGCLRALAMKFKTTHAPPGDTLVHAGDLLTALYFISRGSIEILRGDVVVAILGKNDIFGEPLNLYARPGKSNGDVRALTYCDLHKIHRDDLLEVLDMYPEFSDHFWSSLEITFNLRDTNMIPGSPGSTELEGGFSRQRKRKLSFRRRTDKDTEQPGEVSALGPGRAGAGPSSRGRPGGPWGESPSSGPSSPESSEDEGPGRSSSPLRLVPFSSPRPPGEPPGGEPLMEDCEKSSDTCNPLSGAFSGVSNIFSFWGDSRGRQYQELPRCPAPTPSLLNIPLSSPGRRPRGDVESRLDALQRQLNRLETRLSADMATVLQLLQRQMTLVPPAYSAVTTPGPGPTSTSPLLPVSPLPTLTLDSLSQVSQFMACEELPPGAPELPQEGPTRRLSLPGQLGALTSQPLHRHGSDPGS
# Protocol: Two concentrations (1 and 30 μM, two replicates each) were tested at room temperature.
# NaV1.5 = NaV1.5 (Homo sapiens, UniProt Q14524); assay: Qube NaV1.5
# CaV1.2 = CaV1.2 (Homo sapiens, UniProt Q13936); assay: in vitro
# CaV1.2, sequence (Q13936 whole entry): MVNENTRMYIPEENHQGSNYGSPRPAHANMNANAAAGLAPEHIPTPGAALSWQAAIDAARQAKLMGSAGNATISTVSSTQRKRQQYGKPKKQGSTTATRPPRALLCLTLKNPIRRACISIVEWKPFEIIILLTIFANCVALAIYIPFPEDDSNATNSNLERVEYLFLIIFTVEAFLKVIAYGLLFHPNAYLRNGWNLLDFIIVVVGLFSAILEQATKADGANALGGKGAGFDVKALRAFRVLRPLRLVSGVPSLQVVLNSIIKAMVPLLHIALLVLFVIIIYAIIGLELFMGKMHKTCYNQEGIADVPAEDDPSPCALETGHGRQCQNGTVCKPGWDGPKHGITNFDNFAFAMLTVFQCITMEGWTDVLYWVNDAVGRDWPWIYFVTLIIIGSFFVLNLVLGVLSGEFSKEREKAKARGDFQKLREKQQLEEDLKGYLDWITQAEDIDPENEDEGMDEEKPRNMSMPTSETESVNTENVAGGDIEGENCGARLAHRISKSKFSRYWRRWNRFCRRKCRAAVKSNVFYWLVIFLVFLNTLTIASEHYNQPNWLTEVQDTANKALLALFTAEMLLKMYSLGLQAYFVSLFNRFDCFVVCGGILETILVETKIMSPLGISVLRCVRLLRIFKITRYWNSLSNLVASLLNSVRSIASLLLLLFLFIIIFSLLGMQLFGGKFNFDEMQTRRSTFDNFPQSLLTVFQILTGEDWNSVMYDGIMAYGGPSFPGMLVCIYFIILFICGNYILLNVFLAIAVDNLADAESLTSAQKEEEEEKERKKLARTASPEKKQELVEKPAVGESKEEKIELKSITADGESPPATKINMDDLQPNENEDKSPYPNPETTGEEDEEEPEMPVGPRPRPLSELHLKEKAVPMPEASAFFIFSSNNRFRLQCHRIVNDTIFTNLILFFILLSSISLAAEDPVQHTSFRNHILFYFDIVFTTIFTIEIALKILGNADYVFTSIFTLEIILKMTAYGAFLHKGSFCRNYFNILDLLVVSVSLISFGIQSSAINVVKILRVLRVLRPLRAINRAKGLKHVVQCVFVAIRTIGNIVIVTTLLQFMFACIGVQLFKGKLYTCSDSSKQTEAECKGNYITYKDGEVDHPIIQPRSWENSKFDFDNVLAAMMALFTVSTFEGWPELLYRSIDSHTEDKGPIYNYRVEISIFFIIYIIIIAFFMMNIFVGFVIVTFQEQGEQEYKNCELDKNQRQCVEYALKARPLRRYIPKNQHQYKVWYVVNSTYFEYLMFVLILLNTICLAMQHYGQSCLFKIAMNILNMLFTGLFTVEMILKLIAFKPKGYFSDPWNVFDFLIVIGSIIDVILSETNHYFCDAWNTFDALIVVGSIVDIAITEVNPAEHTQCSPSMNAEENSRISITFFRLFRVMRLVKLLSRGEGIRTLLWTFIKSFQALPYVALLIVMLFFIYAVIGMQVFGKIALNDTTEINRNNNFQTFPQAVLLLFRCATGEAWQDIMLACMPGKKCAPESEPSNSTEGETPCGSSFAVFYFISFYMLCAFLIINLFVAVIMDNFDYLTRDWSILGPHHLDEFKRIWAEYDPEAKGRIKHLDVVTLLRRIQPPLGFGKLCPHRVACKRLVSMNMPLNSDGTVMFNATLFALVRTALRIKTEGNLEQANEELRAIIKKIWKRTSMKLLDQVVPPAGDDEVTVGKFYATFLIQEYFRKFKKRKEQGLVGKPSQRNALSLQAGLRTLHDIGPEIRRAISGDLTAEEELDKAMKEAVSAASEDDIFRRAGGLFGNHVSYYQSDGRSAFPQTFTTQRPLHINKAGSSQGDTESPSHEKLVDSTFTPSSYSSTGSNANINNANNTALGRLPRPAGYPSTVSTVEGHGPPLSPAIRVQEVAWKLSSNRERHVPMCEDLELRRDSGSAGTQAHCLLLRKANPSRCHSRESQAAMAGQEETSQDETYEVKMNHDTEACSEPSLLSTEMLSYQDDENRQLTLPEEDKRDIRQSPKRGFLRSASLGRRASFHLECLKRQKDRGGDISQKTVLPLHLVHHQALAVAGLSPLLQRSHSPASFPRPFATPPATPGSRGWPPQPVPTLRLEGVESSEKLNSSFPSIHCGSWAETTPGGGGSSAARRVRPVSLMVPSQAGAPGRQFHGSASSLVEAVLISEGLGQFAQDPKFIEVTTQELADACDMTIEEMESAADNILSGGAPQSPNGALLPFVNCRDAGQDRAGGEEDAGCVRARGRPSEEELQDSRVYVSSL
# CaV1.2, sequence (Q08289 whole entry partner): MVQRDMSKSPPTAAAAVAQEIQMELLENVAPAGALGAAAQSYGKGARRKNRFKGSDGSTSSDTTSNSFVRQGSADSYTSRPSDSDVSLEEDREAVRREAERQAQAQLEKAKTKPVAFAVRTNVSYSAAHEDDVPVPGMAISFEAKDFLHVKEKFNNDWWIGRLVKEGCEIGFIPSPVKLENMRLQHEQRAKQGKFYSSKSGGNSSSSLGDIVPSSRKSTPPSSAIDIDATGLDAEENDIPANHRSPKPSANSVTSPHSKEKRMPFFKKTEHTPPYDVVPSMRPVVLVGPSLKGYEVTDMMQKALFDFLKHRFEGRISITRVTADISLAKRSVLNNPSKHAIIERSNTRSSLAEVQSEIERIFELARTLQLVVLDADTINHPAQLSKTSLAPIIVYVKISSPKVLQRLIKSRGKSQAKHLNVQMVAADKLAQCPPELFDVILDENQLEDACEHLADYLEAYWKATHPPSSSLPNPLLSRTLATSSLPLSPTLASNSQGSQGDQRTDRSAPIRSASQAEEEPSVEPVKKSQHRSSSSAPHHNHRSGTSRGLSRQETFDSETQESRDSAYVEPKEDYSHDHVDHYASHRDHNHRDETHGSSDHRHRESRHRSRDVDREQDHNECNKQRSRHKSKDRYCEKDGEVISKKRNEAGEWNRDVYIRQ
# [3] = In vitro cytotoxicity assays, all cell lines tested; format: cell-based; settings: mouse, human, African green monkey
# [4] = L. infantum MHOM/BR/2007/WC (L3015)
# [5] = L. infantum MHOM/ES/2016/LLM-2346
# [6] = L. infantum MHOM/FR/96/LEM3323 Cl4 MIL-R (miltefosine resistant)
# [7] = L. infantum MHOM/FR/96/LEM3323 Cl4 PM-R (paromomycin resistant)
# [8] = L. infantum MHOM/MA/67/ITMAP263
# [9] = L. donovani MHOM/ NP/2003/ BPK282/0-cl4
# [10] = L. donovani MHOM/ET/2007/LLM-1600
# [11] = L. donovani MHOM/NP/03/BPK275/0-cl18
smiles,measurement,setting,value
Cc1[nH]c2nc(N)nc(C)c2c1-c1ccc(C#N)c2c1OCO2 [DNDI-6174],EC50,L. major; L. major MHOM/IL/81/Friedlin,90 nM
same,EC90,L. major; L. major MHOM/IL/81/Friedlin,900 nM
same,EC50,L. major; L. major MHOM/SA/85/JISH118,740 nM
same,EC90,L. major; L. major MHOM/SA/85/JISH118,11400 nM
same,EC50,L. panamensis,40 nM
same,EC90,L. panamensis,85 nM
same,EC50,L. tropica,360 nM
same,EC90,L. tropica,2180 nM
same,EC50,L. guyanensis,12 nM
same,EC90,L. guyanensis,39 nM
same,EC50,L. infantum; [4],70 nM
same,EC90,L. infantum; [4],180 nM
same,EC50,L. infantum; [5],210 nM
same,EC90,L. infantum; [5],1520 nM
same,EC50,L. infantum; L. infantum MHOM/FR/96/LEM3323,50 nM
same,EC90,L. infantum; L. infantum MHOM/FR/96/LEM3323,180 nM
same,EC50,L. infantum; [6],70 nM
same,EC90,L. infantum; [6],220 nM
same,EC50,L. infantum; [7],80 nM
same,EC90,L. infantum; [7],170 nM
same,EC50,L. infantum; [8],160 nM
same,EC90,L. infantum; [8],440 nM
same,EC50,[1],5000 to 20000 nM
same,IC50,[2],12800 nM
same,EC50,L. donovani; [9],50 nM
same,EC90,L. donovani; [9],140 nM
same,EC50,L. donovani; L. donovani MHOM/ET/67/HU3,90 nM
same,EC90,L. donovani; L. donovani MHOM/ET/67/HU3,2000 nM
same,EC50,L. donovani; [10],80 nM
same,EC90,L. donovani; [10],280 nM
same,EC50,L. donovani; L. donovani MHOM/IN/80/DD8,170 nM
same,EC90,L. donovani; L. donovani MHOM/IN/80/DD8,490 nM
same,EC50,L. donovani; [11],40 nM
same,EC90,L. donovani; [11],120 nM
same,inhibition at 1 µM,hERG; 1 μM,3.81%
same,inhibition at 10 µM,hERG; 10 μM,48%
same,IC50,NaV1.5,> 50000 nM
same,inhibition at 100 µM,CaV1.2,43%
same,CC50,[3],> 37000 nM
